Results on 52 molecules are retold here after US20140038920A1, “TFEB PHOSPHORYLATION INHIBITORS AND USES THEREOF” (FONDAZIONE TELETHON, priority 2011, published 2014).

The structures appear in SMILES notation.

This assay concerns TFEB. The experiment in a line: High content TFEB-GFP nuclear translocation assay. Format: cell-based. The conditions noted are these: Homo sapiens; mobilization of cytosolic TFEB to the nucleus; TFEB-GFP HeLa cells, 3 h at 37° C. in RPMI, ten concentrations 50 μM to 2.54 nM, 4 runs; read-out: Average EC50. Here is the method: Immunoblotting of protein extracts isolated from HeLa cells treated overnight, as indicated. Membranes were probed with antibodies for p-T202/Y204-ERK1/2, ERK1/2, p-T389-S6K, and S6K to measure ERK and mTORC1 activities. […] FLAG immunoblotting of cytosolic and nuclear fractions isolated from TFEB-3×FLAG HeLa cells cultured in amino acid-free media and subsequently stimulated as indicated for at least 3 h. Correct subcellular fractionation was verified with H3 and tubulin antibodies. […] After 3 h at 37° C. in RPMI medium containing one of each of the compounds, the cells were washed, fixed, and stained with DAPI and photographed by using confocal automated microscopy (Opera high content system, Perkin Elmer). […] Scale bars represent 30 μm. […] The EC50 for each compound was calculated using Prism software (see Materials and Methods for details). […] Antibody used were p-T389-S6K, S6K and FLAG. […] HeLa cells stably expressing Flag-3×TFEB were infected with lentiviruses encoding a Short hairpin (Sh-) RNA targeting luciferase (control) or RagC and RagD mRNAs. […] TFEB localization was detected with a FLAG antibody, whereas tubulin and H3 were used as controls for the cytosolic and nuclear fraction, respectively; levels of S6K phosphorylation were used to test RagC and RagD knockdown efficiency.
After 3 hours at 37° C. in RPMI medium cells were washed, fixed, and stained with DAPI. For the acquisition of the images, ten pictures per each well of the 384-well plate were taken by using confocal automated microscopy (Opera high content system, Perkin Elmer). A dedicated script was developed to perform the analysis of TFEB localization on the different images (Acapella software, Perkin Elmer). The script calculates the ratio value resulting from the average intensity of nuclear TFEB-GFP fluorescence divided by the average of the cytosolic intensity of TFEB-GFP fluorescence. The results were normalized using negative (RPMI medium) and positive (HBSS starvation) control samples in the same plate. The data are represented by the percentage of nuclear translocation at the different concentrations of each compound using Prism software (GraphPad software). The EC50 for each compound was calculated using non-linear regression fitting (Prism software).
In order to find additional small molecules able to induce the translocation of TFEB from the cytosol to the nucleus, the applicants developed a cell-based high content assay using stable HeLa cells overexpressing TFEB fused to the green fluorescent protein (TFEB-GFP). In the assay imaging of treated cells is acquired by an automated confocal microscope (OPERA system) and the analysis of those images with Acapella image software calculates the ratio of the average of fluorescence intensity of TFEB-GFP between the cytosol and nucleus of the cell (see Materials and methods for details). […] They tested ten concentrations for each inhibitor.
Turning to `Cc1cc(Nc2cc(N3CCN(C)CC3)nc(/C=C/c3ccccc3)n2)n[nH]1` [ENMD-2076], the EC50 was under 7 µM. For `Cc1nc(N)sc1-c1ccnc(Nc2ccc(N3CCOCC3)cc2)n1` [CYC116] the value was under 7 µM; for `O=C(NOC[C@H](O)CO)c1ccc(F)c(F)c1Nc1ccc(I)cc1F` [PD0325901], over 15 µM; for `COc1cc2c(Oc3ccc(NC(=O)C4(C(=O)Nc5ccc(F)cc5)CC4)cc3F)ccnc2cc1OCCCN1CCOCC1` [XL880 (GSK1363089)], under 7 µM.

As for `CCN1CCN(Cc2ccc(-c3cc4c(N[C@H](C)c5ccccc5)ncnc4[nH]3)cc2)CC1` [AEE788], the EC50 was under 7 µM. For `O=C1c2ccccc2-c2n[nH]c3cccc1c23` [SP600125] the value was over 15 µM. For `CN(C)C/C=C/C(=O)Nc1cc2c(Nc3ccc(F)c(Cl)c3)ncnc2cc1O[C@H]1CCOC1` [BIBW2992 (Tovok)], the EC50 is under 7 µM. With `COc1cc2c(Oc3ccc4[nH]c(C)cc4c3F)ncnc2cc1OCCCN1CCCC1` [Cediranib (AZD2171), Cediranib], the EC50 is under 7 µM.

For the molecule `COc1cc2nccc(Oc3ccc(NC(=O)Nc4ccc(F)cc4F)c(F)c3)c2cc1OC` [Ki8751], the concentration for a half-maximal effect (EC50) was under 7 µM. For `COc1ccc(-c2ccc3c(N4CCOCC4)nc(N4C[C@@H](C)O[C@@H](C)C4)nc3n2)cc1CO` [KU0063794] the value was under 7 µM; for `CS(=O)(=O)CCNCc1ccc(-c2ccc3ncnc(Nc4ccc(OCc5cccc(F)c5)c(Cl)c4)c3c2)o1` [Lapatinib Ditosylate], under 7 µM. Regarding `Oc1cccc(-c2nc(N3CCOCC3)c3oc4ncccc4c3n2)c1` [PI103], the EC50 is under 7 µM. On to `Cc1ccc([N+](=O)[O-])cc1S(=O)(=O)N(C)/N=C/c1cnc2ccc(Br)cn12` [PIK75], for which the EC50 was under 7 µM.

`C[C@@H](Oc1cc(-n2cnc3ccc(CN4CCN(C)CC4)cc32)sc1C(N)=O)c1ccccc1C(F)(F)F` [GSK461364]: the EC50 is under 7 µM. To `CO[C@H]1C[C@@H]2CC[C@@H](C)[C@@](O)(O2)C(=O)C(=O)N2CCCC[C@H]2C(=O)O[C@H]([C@H](C)C[C@@H]2CC[C@@H](OC(=O)C(C)(CO)CO)[C@H](OC)C2)CC(=O)[C@H](C)/C=C(\C)[C@@H](O)[C@@H](OC)C(=O)[C@H](C)C[C@H](C)/C=C/C=C/C=C/1C` [Temsirolimus] belongs 7 to 15 µM; to `C=CC(=O)Nc1cc2c(Nc3ccc(F)c(Cl)c3)ncnc2cc1OCCCN1CCOCC1` [CI-1033], under 7 µM; to `CN1CCN(CCOc2cc(OC3CCOCC3)c3c(Nc4c(Cl)ccc5c4OCO5)ncnc3c2)CC1` [AZD0530 (Saracatinib), Saracatinib], 7 to 15 µM. For `CC(C)(C)Cn1c(N)nc2ccc(-c3[nH]c(C(C)(C)C)nc3-c3ccc(F)cc3)nc21` [LY2228820] the value was under 7 µM.

With `Cc1c[nH]c(-c2cnc(NCCNc3ccc(C#N)cn3)nc2-c2ccc(Cl)cc2Cl)n1` [CHIR99021], the EC50 was under 7 µM. For `CCN1CCN(C(=O)Cc2ccc(Nc3ncc(F)c(Nc4ccc(C(=O)Nc5ccccc5Cl)cc4)n3)cc2)CC1` [Aurora A inhibitor 1] the value was under 7 µM; for `CN(C)Cc1cccc(N/C(=C2\C(=O)Nc3cc(C(=O)N(C)C)ccc32)c2ccccc2)c1` [BIX02189], 7 to 15 µM; for `FC(F)c1nc2ccccc2n1-c1nc(N2CCOCC2)nc(N2CCOCC2)n1` [ZSTK474], under 7 µM.

For `CCS(=O)(=O)Nc1ccc2c(c1)/C(=C(/Nc1ccc(CN3CCCCC3)cc1)c1ccccc1)C(=O)N2` [Hesperadin], the EC50 lay in the range of 7 to 15 µM.

In the case of `CCC1=C[C@@H]2CN(C1)Cc1c([nH]c3ccccc13)[C@@](C(=O)OC)(c1cc3c(cc1OC)N(C)[C@H]1[C@@](O)(C(=O)OC)[C@H](OC(C)=O)[C@]4(CC)C=CCN5CC[C@]31[C@@H]54)C2` [Vinorelbine], the half-maximal effective concentration (EC50) was under 7 µM. In the case of `CN(C)c1ccc(-c2nc3c(N4CCN(CC(=O)Nc5nccs5)CC4)c(Cl)cnc3[nH]2)cc1` [CCT129202], the concentration giving a half-maximal response (EC50) was under 7 µM.

Regarding `COC(=O)Nc1ccc(-c2nc(N3CCOCC3)c3cnn(C4CCN(C(=O)OC)CC4)c3n2)cc1` [WYE354], the EC50 lay in the range of 7 to 15 µM. For `CNC(=O)c1ccc2c(c1)NC(=O)/C2=C(\Nc1cccc(CN(C)C)c1)c1ccccc1` [BIX 02188] the value was over 15 µM; for `N#CC(=C(/N)Sc1ccccc1N)/C(C#N)=C(\N)Sc1ccccc1N` [drawing 34], over 15 µM; for `NC1(c2ccc(-c3nc4ccn5c(=O)[nH]nc5c4cc3-c3ccccc3)cc2)CCC1` [MK-2206], 7 to 15 µM. Take `Cc1ccc(C(=O)Nc2ccc(CN3CCN(C)CC3)c(C(F)(F)F)c2)cc1C#Cc1cnc2cccnn12` [AP24534]: the half-maximal effective concentration (EC50) is under 7 µM.

Take `CCN(CC)CCNC(=O)c1c(C)[nH]c(/C=C2\C(=O)Nc3ccc(F)cc32)c1C` [Sunitinib Malate]: the EC50 is under 7 µM. To `CO[C@H]1C[C@@H]2CC[C@@H](C)[C@@](O)(O2)C(=O)C(=O)N2CCCC[C@H]2C(=O)O[C@H]([C@H](C)C[C@@H]2CC[C@@H](OP(C)(C)=O)[C@H](OC)C2)CC(=O)[C@H](C)/C=C(\C)[C@@H](O)[C@@H](OC)C(=O)[C@H](C)C[C@H](C)/C=C/C=C/C=C/1C` [Deforolimus] belongs 7 to 15 µM; to `CCOc1cc2ncc(C#N)c(Nc3ccc(OCc4ccccn4)c(Cl)c3)c2cc1NC(=O)/C=C/CN(C)C` [Neratinib], over 15 µM; to `C[C@@H]1CN(CC(=O)Nc2ccc3c(c2)Cc2cccc(-c4cc(=O)cc(N5CCOCC5)o4)c2S3)C[C@H](C)O1` [KU-60019], over 15 µM. To `Cc1cc(Nc2cc(CN3CCOCC3)c3nc(C)c(Cc4ccc(Cl)cc4F)n3n2)[nH]n1` [LY2784544] belongs under 7 µM; to `C[C@@H](Oc1cc(-c2cnn(C3CCNCC3)c2)cnc1N)c1c(Cl)ccc(F)c1Cl` [PF-02341066], under 7 µM; to `O=c1cc(-c2cccc3c2Sc2ccccc2S3)oc(N2CCOCC2)c1` [KU-55933], under 7 µM.

Consider `COc1cc(N2CCC(N3CCN(C)CC3)CC2)ccc1Nc1ncc(Cl)c(Nc2ccccc2S(=O)(=O)C(C)C)n1` [NVP-TAE684], for which the EC50 is under 7 µM. Turning to `Cn1c(=O)n(-c2ccc(C(C)(C)C#N)cc2)c2c3cc(-c4cnc5ccccc5c4)ccc3ncc21` [NVP-BEZ235], the EC50 was under 7 µM. For `CO[C@H]1C[C@@H]2CC[C@@H](C)[C@@](O)(O2)C(=O)C(=O)N2CCCC[C@H]2C(=O)O[C@H]([C@H](C)C[C@@H]2CC[C@@H](OCCO)[C@H](OC)C2)CC(=O)[C@H](C)/C=C(\C)[C@@H](O)[C@@H](OC)C(=O)[C@H](C)C[C@H](C)/C=C/C=C/C=C/1C` [Everolimus (RAD001), Everolimus] the value was over 15 µM; for `Cc1ccc(S(=O)(=O)Nc2nc3ccccc3nc2Nc2ccc3nsnc3c2)cc1` [XL147], under 7 µM; for `CC(C)c1cnn2c(NCc3ccccc3)cc(NCCCCCCN)nc12` [BS181], under 7 µM.

Regarding `COc1cc2c(Nc3ccc(Br)cc3F)ncnc2cc1OCC1CCN(C)CC1` [Vandetanib], the EC50 is under 7 µM. For the molecule `Cn1cc(C2=C(c3cn(C4CCN(Cc5ccccn5)CC4)c4ccccc34)C(=O)NC2=O)c2ccccc21` [Enzastaurin], the EC50 is under 7 µM. For `O=C1NC(=O)C(Cc2ccc3nccc(-c4ccncc4)c3c2)S1` (stereo not shown) [GSK1059615], the half-maximal effective concentration (EC50) is under 7 µM. Regarding `Cc1cc(C(C)Nc2ccccc2)c2nc(N3CCOCC3)cc(=O)n2c1` (stereo not shown) [TGX 221], the EC50 was under 7 µM.

In the case of `Nc1nc(Nc2ccc(S(N)(=O)=O)cc2)nn1C(=O)c1c(F)cccc1F` [JNJ-7706621], the EC50 was in the range of 7 to 15 µM. In the case of `Clc1ccc(C2(c3ccc(-c4cn[nH]c4)cc3)CCNCC2)cc1` [AT7867], the EC50 is under 7 µM.

For `CC[C@@H]1C(=O)N(C)c2cnc(Nc3ccc(C(=O)NC4CCN(C)CC4)cc3OC)nc2N1C1CCCC1` [BI2536], the EC50 was under 7 µM. Take `Nc1ncnc2c1c(-c1cccc(OCc3ccccc3)c1)cn2C1CC(CN2CCCC2)C1` (stereo in doubt) [NVP-ADW742]: the EC50 is under 7 µM. For the molecule `C=CC(=O)Nc1cccc(Oc2nc(Nc3ccc(N4CCN(C)CC4)cc3OC)ncc2Cl)c1` [WZ4002], the EC50 was in the range of 7 to 15 µM. Take `Nc1nccc(Oc2ccc(NC(=O)c3c[nH]cc(-c4ccc(F)cc4)c3=O)cc2F)c1Cl` [BMS 794833]: the EC50 was in the range of 7 to 15 µM.

What is called EC50 is the concentration giving half of the maximal effect.
